The values that follow come from the NIST ThermoML archive (doi:10.1016/j.fluid.2011.05.004).

For this data set the following is noted: Liquid, Chromatography.

In the case of `CC(C)CC(C)(C)C` [2,2,4-trimethylpentane], the “vapor or sublimation pressure” value (323.65 K) is 20 kPa and the “vapor or sublimation pressure” value (372.33 K) amounted to 101.3 kPa.
With `CCC(C)=O` [butanone], the “vapor or sublimation pressure” value stood at 20 kPa (309.65 K), 30 kPa (319.95 K) and 101.3 kPa (352.68 K).
On to `CCCCCCC` [heptane], for which the “vapor or sublimation pressure” value amounted to 20 kPa (324.56 K) and 101.3 kPa (371.35 K).
Take `CCCCCC` [hexane]: the “vapor or sublimation pressure” value was found to be 30 kPa (307.66 K) and 101.3 kPa (341.79 K).
